Experiments:
[1] = test system: Arabidopsis seeds; test: Arabidopsis germination inhibition analysis, Example 12; type: in vivo; conditions: assessed after 3 days, dark
Protocol: To analyse the effect of compounds on inhibition of germination, Arabidopsis seeds after-ripened for about 4 weeks were surface-sterilized with a solution containing 5% NaClO and 0.05% Tween-20 for 10 minutes, and rinsed with water four times. Sterilized seeds were suspended with 0.1% agar and sowed on 0.8% solidified agar medium containing ½ Murashige and Skoog (MS) salts (Sigma-Aldrich) in the presence of the relevant treatment, stored at 4° C. for 4 days, and then transferred to 22° C. under the dark conditions. Germination was assessed after 3 days.

[2] = test system: ABI2 with PYR/PYL receptors; test: Receptor-mediated PP2C inhibition assay with ABI2, Example 1; type: biochemical, Arabidopsis; conditions: 10 μM; in the presence of all ABA receptors tested
Protocol: (§1) FIG. 2A-FIG. 2C. Novel ABA agonists inhibit PPC2 activity through multiple PYR/PYL. (A) Chemical structure of naturally occurring (+)-ABA and selected ABA agonists. (B) and (C) HAB1, ABU, and ABI2 PP2C enzyme activity based ABA-agonist assays for various receptors in the presence or absence of 10 μM each test chemical.
(§2) HAB1 and PYL proteins were expressed and purified as described previously (Park S Y, et al. (2009) Abscisic Acid Inhibits Type 2C Protein Phosphatases via the PYR/PYL Family of START Proteins. Science 324(5930):1068-1071), with minor modifications. To obtain GST-HAB1, -ABI1 and -ABI2 fusion proteins, the HAB1 cDNA was cloned into pGex-2T whereas ABI1 and ABI2 cDNAs were cloned into the vector pGex-4T-1. […] After 16 hours incubation at 15° C., cells were harvested and recombinant proteins were purified on glutathione agarose as described previously (Park S Y, et al. (2009). To obtain 6×His-PYL receptor fusion proteins, receptor cDNAs for all 13 ABA receptors were cloned into the vector pET28 and expressed and purified as described previously (Mosquna A, et al. (2011) Potent and selective activation of abscisic acid receptors in vivo by mutational stabilization of their agonist-bound conformation. PNAS 108(51):20838-20843); this yielded soluble and functional protein (assessed using receptor-mediated PP2C inhibition assays) for all receptors except PYL7, PYL11 and PYL12. […]

[3] = test system: ABA-responsive genes; test: Quantitative RT-PCR of ABA-responsive genes in Arabidopsis; type: in vivo
Protocol: FIG. 9A-FIG. 9D. LC66C6 induces numerous ABA-responsive genes. […] Ten-day old seedlings were treated with carrier solvent (DMSO) or either 25 μM ABA, pyrabactin or LC66C6 for 8 hours. Total RNA was then prepared labeled and hybridized to ATH1 microarrays. Data plotted are log 2 transformed average expression values for ˜13K probes that were detectable across all experiments. Data shown are averages determined from triplicate biological replicates. (C) and (D) show the expression of a reporter gene in different plant tissues after treatment with vehicle (DMSO), pyrabactin, LC66C6, or (+)-ABA.
FIG. 10. ABA-responsive gene expression in PYR/PYL single mutants. The response of the ABA-responsive MAPKKK18, RD29A, and RD29B mRNAs to LC66C6, ABA and pyrabactin were characterized in the Col and Ler ecotypes and the pyr1, pyl1, ply2, pyl3 and pyl4 single mutant genotypes.
FIG. 11. LC66C6 induces ABA-responsive gene expression in wild-type plants, abi1-1 and PYR/PYL quadruple mutants.
Total RNA was isolated using Plant RNA purification reagent (Invitrogen, USA) according to the manufacturer's instructions. cDNA was synthesized from 1 μg of total RNA using the QantiTec reverse transcription kit (Qiagen, USA). Real-time PCR using Maxima® SYBR Green/Fluorescein qPCR Master Mix (Fermentas) was performed with the iQ5 real-time PCR detection system (Bio-Rad, Hercules, Calif.). The relative amounts of target mRNAs were determined using the relative standard curve method and were normalized by relative amount of internal control mRNA. Biological triplicate experiments were performed.

[4] = test system: ABI1 with PYR/PYL receptors; test: Receptor-mediated PP2C inhibition assay with ABI1, Example 1; type: biochemical, Arabidopsis; conditions: 10 μM; in the presence of all ABA receptors tested
Protocol: as §1, §2

[5] = test system: Chlamydomonas; test: Colony growth of Chlamydomonas with and without salinity and osmotic stress; type: in vivo
Protocol: FIG. 17A-FIG. 17D. The effect of ABA and its agonists in Physcomitrella patens and Chlamydomonas. Protonemal growth images (A) and quantitative analysis (B) of the effects of ABA and agonists on Phsycomitrella patens. Protonema were grown on 200 μM of specific test chemical for 10 days. […] Pyrabactin bleached protonema. (C) The expression of ABA-responsive genes of Physcomitrella patens. Protonema were treated with 200 μM chemical solutions for 3 h. (D) Colony growth of Chlamydomonas on the chemical with salinity stress and osmotic stress. There was no effect of ABA and LC66C6 on the Chlamydomonas growth with and without stresses.

[6] = test system: HAB1 with PYR/PYL receptors; test: Receptor-mediated PP2C inhibition assay with HAB1, Example 1; type: biochemical, Arabidopsis; conditions: 10 μM; in the presence of all ABA receptors tested
Protocol: as §1
FIG. 3A-FIG. 3B. (A) Receptor-mediated dose-dependent inhibition of PP2C enzyme activity by ABA agonists and analogs. (B) Observed compound IC50 values in enzymatic HAB1 PP2C-based ABA-agonist assays.
FIG. 4A-FIG. 4B. Quinabactin activates multiple ABA receptors. (A) Chemical structures of ABA, pyrabactin and quinabactin. (B) Chemical-dependent inhibition of HAB1 by ABA receptors. IC50 values (nM) were determined as described in the methods using 50 nM HAB1, 50 nM and multiple concentrations of compounds; full dose response curves are provided as in FIG. 3. (nd) correspond to receptors that were not produced as active proteins. The phylogenetic tree is a Neighbor-Joining tree made using the JTT distance matrix in MEGA5 (Tamura K, et al. (2011) MEGA5: Molecular Evolutionary Genetics Analysis Using Maximum Likelihood, Evolutionary Distance, and Maximum Parsimony Methods. Molecular Biology and Evolution 28(10):2731-2739).
HAB1 and PYL proteins were expressed and purified as described previously (Park S Y, et al. (2009) Abscisic Acid Inhibits Type 2C Protein Phosphatases via the PYR/PYL Family of START Proteins. Science 324(5930):1068-1071), with minor modifications. To obtain GST-HAB1, -ABI1 and -ABI2 fusion proteins, the HAB1 cDNA was cloned into pGex-2T whereas ABI1 and ABI2 cDNAs were cloned into the vector pGex-4T-1. Expression was conducted in BL21[DE3]pLysS host cells. Transformed cells were pre-cultured overnight, transferred to LB medium and cultured at 30° C. to culture A600 of ˜0.5. The culture was then cooled on ice and MnCl2 added to 4 mM and IPTG added to 0.3 mM. After 16 hours incubation at 15° C., cells were harvested and recombinant proteins were purified on glutathione agarose as described previously (Park S Y, et al. (2009). To obtain 6×His-PYL receptor fusion proteins, receptor cDNAs for all 13 ABA receptors were cloned into the vector pET28 and expressed and purified as described previously (Mosquna A, et al. (2011) Potent and selective activation of abscisic acid receptors in vivo by mutational stabilization of their agonist-bound conformation. PNAS 108(51):20838-20843); this yielded soluble and functional protein (assessed using receptor-mediated PP2C inhibition assays) for all receptors except PYL7, PYL11 and PYL12. These three receptors were therefore alternatively expressed as maltose binding (MBP) fusion proteins using the vector pMAL-c; expression of these constructs was carried out in BL21 [DE3]pLysS host strain with the same induction conditions used for GST-HAB1. Recombinant MBP-PYL fusion proteins were purified from sonicated and cleared lysate using amylose resin (New England Biolab, Inc.) using the manufacturers purification instructions. This effort yielded an active MBP-PYL11 fusion protein, but failed for PYL7 and PYL12.
PP2C activity assays using recombinant receptors and PP2Cs were carried out as follows: Purified proteins were pre-incubated in 80 μl assay buffer containing 10 mM MnCl2, 3 μg bovine serum albumin and 0.1% 2-mercaptoethanol with ABA or ABA agonist for 30 minutes at 22° C. Reactions were started by adding 20 μL of a reaction solution containing 156 mM Tris-OAc, pH 7.9, 330 mM KOAc and 5 mM 4-methylumbelliferyl phosphate after which fluorescence measurements were immediately collected using an excitation filter 355 nm and an emission filter 460 nm on a Wallac plate reader. Reactions contained 50 nM PP2C and 100 nM PYR/PYL proteins, respectively.

| SMILES | Percentage germination of Arabidopsis seeds ([1]; 0.2 uM) [%] | Percentage germination of Arabidopsis seeds ([1]; 1 uM) [%] | Percentage germination of Arabidopsis seeds ([1]; 5 uM) [%] | Percentage germination of Arabidopsis seeds ([1]; 25 uM) [%] | Inhibition of PP2C enzyme activity of ABI2 [2] [%] | Induction of MAPKKK18, RD29A and RD29B mRNAs ([3]; Col and Ler ecotypes and pyr1, pyl1, pyl2, pyl3, pyl4 single mutants) | Expression of ABF3, GBF3, NCED3 and RD29A ([3]; Col wild-type plants) | Inhibition of PP2C enzyme activity of ABI1 [4] [%] | Growth of Chlamydomonas [5] | Inhibition of PP2C enzyme activity of HAB1 [6] [%] |
| --- | --- | --- | --- | --- | --- | --- | --- | --- | --- | --- |
| C=CCN1C(=O)C(C)Cc2cc(NS(=O)(=O)Cc3ccc(C)cc3)ccc21 (stereo not shown) | 99 | 100 | 100 | 71 |  |  |  |  |  |  |
| C=CCN1C(=O)C(C)Cc2cc(NS(=O)(=O)Cc3ccc(OC(F)(F)F)cc3)ccc21 (stereo not shown) | 100 | 100 | 100 | 14 |  |  |  |  |  |  |
| C=CCN1C(=O)CCc2cc(NS(=O)(=O)Cc3ccc(C)cc3)cc(C)c21 | 100 | 100 | 100 | 0 |  |  |  |  |  |  |
| C#CCN1C(=O)CCc2cc(NS(=O)(=O)Cc3ccc(Br)cc3)cc(C)c21 | 100 | 100 | 100 | 0 |  |  |  |  |  |  |
| CC1=CC(=O)CC(C)(C)C1(O)/C=C/C(C)=C\C(=O)O (single isomer, unassigned; (+)) [(+)-ABA, Abscisic acid, reference compound] |  |  |  |  | > 90 | induced | induced expression of ABF3, GBF3, NCED3, and RD29A in a dose dependent manner | > 90 | no effect | > 90 |
| C=CCN1C(=O)CCc2cc(NS(=O)(=O)Cc3ccc(OC(F)(F)F)cc3)cc(C)c21 | 100 | 100 | 30 | 0 |  |  |  |  |  |  |
| C#CCN1C(=O)CCc2cc(NS(=O)(=O)Cc3ccc(OC(F)(F)F)cc3)cc(C)c21 | 100 | 100 | 68 | 0 |  |  |  |  |  |  |
| C#CCN1C(=O)CCc2cc(NS(=O)(=O)Cc3ccc(C)cc3)cc(C)c21 | 100 | 100 | 100 | 0 |  |  |  |  |  |  |
| C=CCN1C(=O)CCc2cc(NS(=O)(=O)Cc3ccc(Br)cc3)cc(C)c21 | 100 | 100 | 96 | 0 |  |  |  |  |  |  |
| CCCN1C(=O)CCc2cc(NS(=O)(=O)Cc3ccc(C)cc3)ccc21 [drawing 36] | 100 | 46 | 0 | 0 |  |  |  |  |  |  |
| C=CCN1C(=O)CCc2cc(NS(=O)(=O)Cc3ccc(Cl)cc3)cc(C)c21 | 100 | 100 | 100 | 0 |  |  |  |  |  |  |

Source: US20160280651A1, “COMPOUNDS THAT INDUCE ABA RESPONSES” (THE REGENTS OF THE UNIVERSITY OF CALIFORNIA, priority 2013, published 2016)
